Reference: patent EP4707277A1, “NOVEL HETEROCYCLIC AMINE DERIVATIVES AND PHARMACEUTICAL COMPOSITION COMPRISING SAME” (Daewoong Pharmaceutical Co., Ltd., priority 2023, dated 2024)

Legend:
[1] = target: T1, BTK (Homo sapiens, UniProt Q06187); assay: Inhibitory activity against BTK, ADP-Glo Kinase system (Promega); type: biochemical; settings: 1mM ATP; read-out: BTK IC50(nM) 1mM ATP
T1 construct: purchased Signalchem B10-10H
In short: (§1)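 IC50 values were fitted from kinase reactions run for 1 h at 30°C with either 1 mM ATP or ATP at Km (10 µM for BTK, 25 µM for ITK). Reactions used 0.2 µg/µl poly(Glu4,Tyr1), recombinant human enzyme (BTK 10 ng, ITK 4 ng per reaction) in Tris pH 7.5 Mn/Mg buffer with 1% DMSO. ADP formed was read by ADP-Glo luminescence.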

[2] = target: T2, ITK (Homo sapiens, UniProt Q08881); assay: Inhibitory activity against ITK, ADP-Glo Kinase system (Promega); type: biochemical; settings: 1mM ATP; read-out: ITK IC50(nM) 1mM ATP
T2 construct: purchased Signalchem I13-11G-10
T2 sequence (Q08881 1-620): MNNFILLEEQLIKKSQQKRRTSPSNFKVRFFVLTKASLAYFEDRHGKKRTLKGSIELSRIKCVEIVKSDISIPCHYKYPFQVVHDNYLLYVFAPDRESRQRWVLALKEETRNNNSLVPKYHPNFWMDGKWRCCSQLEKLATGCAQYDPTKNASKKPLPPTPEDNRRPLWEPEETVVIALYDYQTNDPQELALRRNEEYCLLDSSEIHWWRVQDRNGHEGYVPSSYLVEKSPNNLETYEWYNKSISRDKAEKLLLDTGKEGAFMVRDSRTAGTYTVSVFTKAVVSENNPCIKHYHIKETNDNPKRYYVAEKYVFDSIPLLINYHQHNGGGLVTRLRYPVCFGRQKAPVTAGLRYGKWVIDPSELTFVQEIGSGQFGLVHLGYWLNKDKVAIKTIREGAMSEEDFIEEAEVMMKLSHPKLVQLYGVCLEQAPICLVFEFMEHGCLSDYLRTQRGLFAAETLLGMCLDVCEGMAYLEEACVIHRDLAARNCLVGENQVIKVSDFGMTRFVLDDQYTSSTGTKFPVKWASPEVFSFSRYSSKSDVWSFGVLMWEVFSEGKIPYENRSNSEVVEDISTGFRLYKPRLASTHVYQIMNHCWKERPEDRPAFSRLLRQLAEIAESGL
In short: as §1

T1 sequence (Q06187 whole entry): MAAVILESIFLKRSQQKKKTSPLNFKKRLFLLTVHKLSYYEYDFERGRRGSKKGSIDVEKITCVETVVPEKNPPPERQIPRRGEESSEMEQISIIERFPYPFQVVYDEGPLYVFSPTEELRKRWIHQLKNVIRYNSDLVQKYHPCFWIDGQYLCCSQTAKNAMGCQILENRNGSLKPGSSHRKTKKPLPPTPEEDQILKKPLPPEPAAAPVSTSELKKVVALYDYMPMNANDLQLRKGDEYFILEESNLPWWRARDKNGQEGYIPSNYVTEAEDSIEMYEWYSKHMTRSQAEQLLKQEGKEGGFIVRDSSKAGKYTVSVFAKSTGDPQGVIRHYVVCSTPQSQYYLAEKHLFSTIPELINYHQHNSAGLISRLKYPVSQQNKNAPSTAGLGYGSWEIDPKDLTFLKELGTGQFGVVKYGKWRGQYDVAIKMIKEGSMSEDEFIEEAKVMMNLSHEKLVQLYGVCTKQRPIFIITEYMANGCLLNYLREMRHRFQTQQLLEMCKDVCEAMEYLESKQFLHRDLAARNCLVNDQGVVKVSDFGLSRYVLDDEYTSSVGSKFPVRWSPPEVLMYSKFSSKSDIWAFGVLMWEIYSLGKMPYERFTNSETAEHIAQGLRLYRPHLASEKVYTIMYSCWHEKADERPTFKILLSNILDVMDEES

SMILES	IC50 [1] [nM]	IC50 [2] [nM]
C=CC(=O)N1C[C@@H](Oc2nc(Nc3ncc(C)s3)cc3c2ccn3C(C)C)C[C@@H]1C [Example 88, 1-((2S,4S)-4-((1-isopropyl-6-((5-methylthiazol-2-yl)amino)-1H-pyrrolo[3,2-c]pyridin-4-yl)oxy)-2-methylpyrrolidin-1-yl)prop-2-en-1-one]	≤ 20	≤ 20
C=CC(=O)N1CC[C@@H]1COc1nc(Nc2ncc(C)s2)cc2c1ccn2C(C)C [Example 90, (R)-1-(2-(((1-isopropyl-6-((5-methylthiazol-2-yl)amino)-1H-pyrrolo[3,2-c]pyridin-4-yl)oxy)methyl)azetidin-1-yl)prop-2-en-1-one]	≤ 20	≤ 20
C=CC(=O)N1C[C@@H](F)[C@H](Oc2nc(Nc3ncc(C)s3)cc3c2ccn3C(C)C)C1 [Example 91, 1-((3R,4R)-3-fluoro-4-((1-isopropyl-6-((5-methylthiazol-2-yl)amino)-1H-pyrrolo[3,2-c]pyridin-4-yl)oxy)pyrrolidin-1-yl)prop-2-en-1-one]	≤ 20	≤ 20
C=CC(=O)N1C[C@@H](Oc2nc(Nc3ncc(C)s3)cc3c2ccn3CC(C)C)C[C@H]1C [Example 96, 1-((2R,4S)-4-((1-isobutyl-6-((5-methylthiazol-2-yl)amino)-1H-pyrrolo[3,2-c]pyridin-4-yl)oxy)-2-methylpyrrolidin-1-yl)prop-2-en-1-one]	≤ 20	≤ 20
C=CC(=O)N1CC[C@H](Oc2nc(Nc3ncc(C)s3)cc3c2ccn3CC2CC2)C1 [Example 97, (S)-1-(3-((1-(cyclopropylmethyl)-6-((5-methylthiazol-2-yl)amino)-1H-pyrrolo[3,2-c]pyridin-4-yl)oxy)pyrrolidin-1-yl)prop-2-en-1-one]	≤ 20	≤ 20
C=CC(=O)N1C[C@@H](Oc2nc(Nc3ncc(C)s3)cc3c2ccn3CC2CC2)C[C@H]1C [Example 98, 1-((2R,4S)-4-((1-(cyclopropylmethyl)-6-((5-methylthiazol-2-yl)amino)-1H-pyrrolo[3,2-c]pyridin-4-yl)oxy)-2-methylpyrrolidin-1-yl)prop-2-en-1-one]	≤ 20	≤ 20
C=CC(=O)N1CC[C@H](Oc2nc(Nc3ncc(C)s3)cc3c2ccn3C2CCCC2)C1 [Example 99, (S)-1-(3-((1-cyclopentyl-6-((5-methylthiazol-2-yl)amino)-1H-pyrrolo[3,2-c]pyridin-4-yl)oxy)pyrrolidin-1-yl)prop-2-en-1-one]	≤ 20	≤ 20

More lines, now with the values ahead:

IC50 [1] [nM]	IC50 [2] [nM]	SMILES
≤ 20	20 to 100	C=CC(=O)N1CCC[C@@H]1COc1nc(Nc2ncc(C)s2)cc2c1ccn2C(C)C [Example 89, (R)-1-(2-(((1-isopropyl-6-((5-methylthiazol-2-yl)amino)-1H-pyrrolo[3,2-c]pyridin-4-yl)oxy)methyl)pyrrolidin-1-yl)prop-2-en-1-one]
≤ 20	≤ 20	C=CC(=O)N1CC(F)(F)C[C@@H]1COc1nc(Nc2ncc(C)s2)cc2c1ccn2C(C)C [Example 93, (R)-1-(4,4-difluoro-2-(((1-isopropyl-6-((5-methylthiazol-2-yl)amino)-1H-pyrrolo[3,2-c]pyridin-4-yl)oxy)methyl)pyrrolidin-1-yl)prop-2-en-1-one]
≤ 20	≤ 20	C=CC(=O)N1C[C@@H](OC)C[C@@H]1COc1nc(Nc2ncc(C)s2)cc2c1ccn2C(C)C [Example 94, 1-((2R,4S)-2-(((1-isopropyl-6-((5-methylthiazol-2-yl)amino)-1H-pyrrolo[3,2-c]pyridin-4-yl)oxy)methyl)-4-methoxypyrrolidin-1-yl)prop-2-en-1-one]
≤ 20	100 to 500	C=CC(=O)N1CC[C@H](Oc2nc(Nc3cc(C(F)(F)F)ncn3)cc3c2ccn3C(C)C)C1 [Example 95, (S)-1-(3-((1-isopropyl-6-((6-(trifluoromethyl)pyrimidin-4-yl)amino)-1H-pyrrolo[3,2-c]pyridin-4-yl)oxy)pyrrolidin-1-yl)prop-2-en-1-one]
